Laboratory results as given in ChEMBL document CHEMBL4507274 (2021).

Tests used:
Conditions in all cases: Compound concentration 100.0 nM
[1] = test system: Tyrosine-protein kinase ABL1 (Homo sapiens), P00519 [F317I]
[2] = test system: Tyrosine-protein kinase ABL1 (Homo sapiens), P00519 [Y253F]
[3] = target: T1, Aurora kinase A (Homo sapiens) (UniProt O14965)
T1 sequence (whole entry): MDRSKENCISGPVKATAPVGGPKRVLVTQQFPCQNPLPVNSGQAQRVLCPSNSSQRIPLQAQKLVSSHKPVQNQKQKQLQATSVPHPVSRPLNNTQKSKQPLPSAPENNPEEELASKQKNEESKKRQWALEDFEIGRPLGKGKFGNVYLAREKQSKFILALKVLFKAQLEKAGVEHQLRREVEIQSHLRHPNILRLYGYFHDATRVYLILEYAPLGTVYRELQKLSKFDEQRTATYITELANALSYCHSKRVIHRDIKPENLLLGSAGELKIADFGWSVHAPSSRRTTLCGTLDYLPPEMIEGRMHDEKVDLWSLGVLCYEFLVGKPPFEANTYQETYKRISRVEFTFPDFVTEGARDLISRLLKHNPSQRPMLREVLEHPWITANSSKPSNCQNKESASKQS

[4] = target: Serine/threonine-protein kinase BRSK1 (Homo sapiens) (UniProt Q8TDC3)
[5] = target: T2, Ephrin type-B receptor 4 (Homo sapiens) (UniProt P54760)
T2 sequence (whole entry): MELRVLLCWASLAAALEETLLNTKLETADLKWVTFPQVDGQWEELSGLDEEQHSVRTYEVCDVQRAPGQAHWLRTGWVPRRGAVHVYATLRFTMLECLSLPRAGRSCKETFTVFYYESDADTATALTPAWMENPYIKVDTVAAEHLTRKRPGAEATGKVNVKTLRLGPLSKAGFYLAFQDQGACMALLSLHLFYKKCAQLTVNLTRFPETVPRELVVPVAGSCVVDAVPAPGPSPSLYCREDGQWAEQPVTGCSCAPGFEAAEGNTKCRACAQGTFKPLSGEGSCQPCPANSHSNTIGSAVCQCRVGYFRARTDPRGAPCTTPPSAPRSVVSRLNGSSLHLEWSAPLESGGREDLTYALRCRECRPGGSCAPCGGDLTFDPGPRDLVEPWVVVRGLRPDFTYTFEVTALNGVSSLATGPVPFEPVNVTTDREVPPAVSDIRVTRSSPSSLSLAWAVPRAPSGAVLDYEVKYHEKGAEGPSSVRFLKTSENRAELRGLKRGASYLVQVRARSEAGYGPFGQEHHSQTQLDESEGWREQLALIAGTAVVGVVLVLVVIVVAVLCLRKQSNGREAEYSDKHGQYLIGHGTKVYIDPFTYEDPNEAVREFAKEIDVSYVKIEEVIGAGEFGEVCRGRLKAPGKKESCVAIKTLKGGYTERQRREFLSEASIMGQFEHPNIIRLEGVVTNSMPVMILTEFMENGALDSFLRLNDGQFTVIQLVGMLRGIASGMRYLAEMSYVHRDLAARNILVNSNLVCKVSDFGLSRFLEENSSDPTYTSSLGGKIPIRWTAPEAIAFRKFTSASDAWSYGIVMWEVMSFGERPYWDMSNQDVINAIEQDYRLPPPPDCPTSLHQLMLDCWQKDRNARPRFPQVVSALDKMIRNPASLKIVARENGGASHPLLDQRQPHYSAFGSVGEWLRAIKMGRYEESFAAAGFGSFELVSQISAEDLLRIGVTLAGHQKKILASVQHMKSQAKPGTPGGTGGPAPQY

[6] = target: Tyrosine-protein kinase Fer (Homo sapiens) (UniProt P16591)
[7] = test system: Receptor-type tyrosine-protein kinase FLT3 (Homo sapiens), P36888 [UNDEFINED MUTATION]
[8] = target: Cyclin-G-associated kinase (Homo sapiens) (UniProt O14976)
[9] = target: Mast/stem cell growth factor receptor Kit (Homo sapiens) (UniProt P10721)
[10] = target: Serine/threonine-protein kinase 4 (Homo sapiens) (UniProt Q13043)
[11] = target: T3, Serine/threonine-protein kinase 3 (Homo sapiens) (UniProt Q13188)
T3 sequence (whole entry): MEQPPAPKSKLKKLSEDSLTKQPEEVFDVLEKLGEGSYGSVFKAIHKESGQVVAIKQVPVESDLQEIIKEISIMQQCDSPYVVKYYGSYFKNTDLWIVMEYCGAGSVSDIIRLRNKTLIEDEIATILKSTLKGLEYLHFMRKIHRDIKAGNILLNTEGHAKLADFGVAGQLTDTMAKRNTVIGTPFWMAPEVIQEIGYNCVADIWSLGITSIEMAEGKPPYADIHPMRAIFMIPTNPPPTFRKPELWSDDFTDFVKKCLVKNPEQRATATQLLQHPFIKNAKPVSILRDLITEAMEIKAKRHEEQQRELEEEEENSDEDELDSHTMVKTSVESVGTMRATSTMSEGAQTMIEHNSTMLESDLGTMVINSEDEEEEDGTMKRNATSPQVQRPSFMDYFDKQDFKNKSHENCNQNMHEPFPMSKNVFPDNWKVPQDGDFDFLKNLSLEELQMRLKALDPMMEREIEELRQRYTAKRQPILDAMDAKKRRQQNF

[12] = target: Serine/threonine-protein kinase mTOR (Homo sapiens) (UniProt P42345)
[13] = target: Serine/threonine-protein kinase Nek4 (Homo sapiens) (UniProt P51957)
[14] = test system: Phosphatidylinositol 4,5-bisphosphate 3-kinase catalytic subunit alpha isoform (Homo sapiens), P42336 [E542K]
[15] = target: Protein kinase C eta type (Homo sapiens) (UniProt P24723)
[16] = target: cGMP-dependent protein kinase 1 (Homo sapiens) (UniProt Q13976)
[17] = target: Protein-tyrosine kinase 2-beta (Homo sapiens) (UniProt Q14289)
[18] = target: Serine/threonine-protein kinase SIK1 (Homo sapiens) (UniProt P57059)
[19] = target: Activated CDC42 kinase 1 (Homo sapiens) (UniProt Q07912)
[20] = target: Testis-specific serine/threonine-protein kinase 3 (Homo sapiens) (UniProt Q96PN8)
Sequence of Testis-specific serine/threonine-protein kinase 3 (Homo sapiens) (Q96PN8 whole entry): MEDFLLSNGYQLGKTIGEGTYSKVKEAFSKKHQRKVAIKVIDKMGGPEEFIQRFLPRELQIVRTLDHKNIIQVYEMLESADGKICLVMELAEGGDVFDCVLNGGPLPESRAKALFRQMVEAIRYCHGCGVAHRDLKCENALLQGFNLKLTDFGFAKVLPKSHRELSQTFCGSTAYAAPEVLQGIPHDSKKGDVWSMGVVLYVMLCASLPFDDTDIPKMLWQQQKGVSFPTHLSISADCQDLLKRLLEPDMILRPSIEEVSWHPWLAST

Sequence of Serine/threonine-protein kinase Nek4 (Homo sapiens) (P51957 whole entry, looked up, canonical isoform): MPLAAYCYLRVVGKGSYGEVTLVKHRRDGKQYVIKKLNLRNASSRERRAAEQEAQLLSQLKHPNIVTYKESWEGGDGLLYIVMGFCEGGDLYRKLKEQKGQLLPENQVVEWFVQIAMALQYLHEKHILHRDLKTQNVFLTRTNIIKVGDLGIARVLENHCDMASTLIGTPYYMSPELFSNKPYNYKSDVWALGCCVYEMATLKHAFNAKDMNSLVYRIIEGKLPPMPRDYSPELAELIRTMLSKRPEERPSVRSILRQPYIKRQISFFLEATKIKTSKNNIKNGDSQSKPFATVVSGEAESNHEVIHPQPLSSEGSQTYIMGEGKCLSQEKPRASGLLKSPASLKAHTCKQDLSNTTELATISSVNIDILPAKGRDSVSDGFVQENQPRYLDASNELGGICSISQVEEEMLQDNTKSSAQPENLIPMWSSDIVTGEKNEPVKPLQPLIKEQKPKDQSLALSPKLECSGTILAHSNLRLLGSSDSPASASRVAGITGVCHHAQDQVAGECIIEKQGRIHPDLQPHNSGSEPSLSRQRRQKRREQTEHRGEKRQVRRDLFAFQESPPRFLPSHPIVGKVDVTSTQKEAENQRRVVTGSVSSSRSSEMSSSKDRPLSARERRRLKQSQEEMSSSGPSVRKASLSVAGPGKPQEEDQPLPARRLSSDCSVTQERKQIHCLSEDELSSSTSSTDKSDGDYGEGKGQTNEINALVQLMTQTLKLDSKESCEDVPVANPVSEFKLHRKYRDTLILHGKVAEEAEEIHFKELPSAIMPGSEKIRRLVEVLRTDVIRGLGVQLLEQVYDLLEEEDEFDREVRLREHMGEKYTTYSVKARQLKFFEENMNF
Sequence of Protein-tyrosine kinase 2-beta (Homo sapiens) (Q14289 whole entry, looked up): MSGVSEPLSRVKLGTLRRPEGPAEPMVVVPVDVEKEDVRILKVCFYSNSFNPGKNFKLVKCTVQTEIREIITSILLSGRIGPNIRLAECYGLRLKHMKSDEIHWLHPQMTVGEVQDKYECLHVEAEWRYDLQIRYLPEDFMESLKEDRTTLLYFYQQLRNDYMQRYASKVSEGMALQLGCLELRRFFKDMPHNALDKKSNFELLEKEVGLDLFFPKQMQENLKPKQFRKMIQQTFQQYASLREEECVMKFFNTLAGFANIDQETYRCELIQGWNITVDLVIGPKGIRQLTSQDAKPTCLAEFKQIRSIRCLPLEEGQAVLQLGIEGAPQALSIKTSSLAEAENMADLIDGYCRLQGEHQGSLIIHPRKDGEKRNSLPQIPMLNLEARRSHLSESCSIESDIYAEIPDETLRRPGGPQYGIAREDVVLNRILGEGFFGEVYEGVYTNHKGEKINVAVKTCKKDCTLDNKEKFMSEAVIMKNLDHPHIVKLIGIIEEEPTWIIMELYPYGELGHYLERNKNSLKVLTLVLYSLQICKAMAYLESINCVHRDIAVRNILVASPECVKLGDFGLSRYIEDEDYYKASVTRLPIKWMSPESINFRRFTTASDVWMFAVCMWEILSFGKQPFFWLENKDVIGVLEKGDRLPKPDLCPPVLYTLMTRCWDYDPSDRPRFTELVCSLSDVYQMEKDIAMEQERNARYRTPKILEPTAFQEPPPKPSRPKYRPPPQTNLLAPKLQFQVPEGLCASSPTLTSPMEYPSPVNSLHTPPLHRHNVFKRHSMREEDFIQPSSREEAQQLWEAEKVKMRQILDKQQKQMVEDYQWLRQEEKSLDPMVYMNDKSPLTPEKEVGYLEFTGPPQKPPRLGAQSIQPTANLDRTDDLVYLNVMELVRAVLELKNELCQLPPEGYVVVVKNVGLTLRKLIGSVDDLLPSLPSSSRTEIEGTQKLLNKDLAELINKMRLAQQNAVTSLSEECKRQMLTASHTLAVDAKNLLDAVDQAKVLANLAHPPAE
Sequence of cGMP-dependent protein kinase 1 (Homo sapiens) (Q13976 whole entry): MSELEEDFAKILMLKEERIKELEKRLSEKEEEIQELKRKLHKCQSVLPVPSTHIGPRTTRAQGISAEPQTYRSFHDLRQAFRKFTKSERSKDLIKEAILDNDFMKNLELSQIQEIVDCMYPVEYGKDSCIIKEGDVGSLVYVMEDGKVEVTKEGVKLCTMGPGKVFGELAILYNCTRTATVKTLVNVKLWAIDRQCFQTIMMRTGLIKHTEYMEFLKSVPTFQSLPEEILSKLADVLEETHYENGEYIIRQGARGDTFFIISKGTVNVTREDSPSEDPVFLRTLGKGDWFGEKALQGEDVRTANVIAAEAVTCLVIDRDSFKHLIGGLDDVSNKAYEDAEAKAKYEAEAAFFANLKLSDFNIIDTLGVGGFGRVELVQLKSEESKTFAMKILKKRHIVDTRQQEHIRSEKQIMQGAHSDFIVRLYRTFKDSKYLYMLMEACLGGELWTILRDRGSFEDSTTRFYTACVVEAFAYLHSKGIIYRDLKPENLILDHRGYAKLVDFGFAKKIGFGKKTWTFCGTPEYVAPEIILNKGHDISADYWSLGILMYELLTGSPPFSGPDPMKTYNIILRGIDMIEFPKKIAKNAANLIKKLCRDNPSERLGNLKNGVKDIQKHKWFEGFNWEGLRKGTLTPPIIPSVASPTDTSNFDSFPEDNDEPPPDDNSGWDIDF
Sequence of Serine/threonine-protein kinase 4 (Homo sapiens) (Q13043 whole entry): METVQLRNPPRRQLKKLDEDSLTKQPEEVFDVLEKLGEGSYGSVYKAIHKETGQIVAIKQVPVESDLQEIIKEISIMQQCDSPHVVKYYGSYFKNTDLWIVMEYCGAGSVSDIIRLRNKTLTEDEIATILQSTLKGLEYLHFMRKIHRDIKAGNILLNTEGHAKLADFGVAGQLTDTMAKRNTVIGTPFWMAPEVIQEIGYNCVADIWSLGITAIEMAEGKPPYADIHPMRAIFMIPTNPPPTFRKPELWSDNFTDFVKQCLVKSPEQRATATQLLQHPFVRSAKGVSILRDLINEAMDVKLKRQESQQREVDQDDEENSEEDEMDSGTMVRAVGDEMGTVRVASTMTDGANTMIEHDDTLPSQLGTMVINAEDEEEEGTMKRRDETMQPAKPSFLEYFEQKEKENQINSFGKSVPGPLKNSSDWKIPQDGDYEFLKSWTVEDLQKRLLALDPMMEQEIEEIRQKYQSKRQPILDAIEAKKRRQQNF
Sequence of Activated CDC42 kinase 1 (Homo sapiens) (Q07912 whole entry, looked up): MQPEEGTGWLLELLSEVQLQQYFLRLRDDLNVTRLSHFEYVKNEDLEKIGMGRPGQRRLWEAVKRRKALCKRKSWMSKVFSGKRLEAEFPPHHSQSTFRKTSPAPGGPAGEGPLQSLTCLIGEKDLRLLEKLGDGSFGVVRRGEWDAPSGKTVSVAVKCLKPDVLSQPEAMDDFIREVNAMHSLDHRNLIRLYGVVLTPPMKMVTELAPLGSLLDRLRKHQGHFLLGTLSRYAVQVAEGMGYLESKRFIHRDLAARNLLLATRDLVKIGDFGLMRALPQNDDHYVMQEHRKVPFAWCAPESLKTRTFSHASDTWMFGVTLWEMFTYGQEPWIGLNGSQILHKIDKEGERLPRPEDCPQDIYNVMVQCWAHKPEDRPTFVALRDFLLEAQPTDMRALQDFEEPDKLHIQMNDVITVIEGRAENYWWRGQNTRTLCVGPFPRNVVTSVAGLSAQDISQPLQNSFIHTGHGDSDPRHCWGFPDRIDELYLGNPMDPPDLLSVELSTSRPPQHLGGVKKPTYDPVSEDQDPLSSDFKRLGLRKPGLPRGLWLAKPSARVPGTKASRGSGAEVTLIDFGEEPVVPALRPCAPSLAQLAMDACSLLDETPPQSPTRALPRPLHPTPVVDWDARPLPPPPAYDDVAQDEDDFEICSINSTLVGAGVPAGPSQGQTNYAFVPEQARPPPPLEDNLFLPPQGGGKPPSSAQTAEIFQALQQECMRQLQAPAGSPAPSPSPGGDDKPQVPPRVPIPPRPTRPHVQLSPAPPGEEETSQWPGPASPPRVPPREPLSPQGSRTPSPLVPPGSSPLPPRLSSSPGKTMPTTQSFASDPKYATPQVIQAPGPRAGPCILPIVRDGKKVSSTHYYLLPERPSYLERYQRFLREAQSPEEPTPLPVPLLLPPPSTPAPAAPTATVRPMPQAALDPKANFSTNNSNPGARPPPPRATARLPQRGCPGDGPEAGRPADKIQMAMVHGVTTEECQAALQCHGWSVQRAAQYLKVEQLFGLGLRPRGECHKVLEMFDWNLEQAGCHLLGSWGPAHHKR
Sequence of Protein kinase C eta type (Homo sapiens) (P24723 whole entry): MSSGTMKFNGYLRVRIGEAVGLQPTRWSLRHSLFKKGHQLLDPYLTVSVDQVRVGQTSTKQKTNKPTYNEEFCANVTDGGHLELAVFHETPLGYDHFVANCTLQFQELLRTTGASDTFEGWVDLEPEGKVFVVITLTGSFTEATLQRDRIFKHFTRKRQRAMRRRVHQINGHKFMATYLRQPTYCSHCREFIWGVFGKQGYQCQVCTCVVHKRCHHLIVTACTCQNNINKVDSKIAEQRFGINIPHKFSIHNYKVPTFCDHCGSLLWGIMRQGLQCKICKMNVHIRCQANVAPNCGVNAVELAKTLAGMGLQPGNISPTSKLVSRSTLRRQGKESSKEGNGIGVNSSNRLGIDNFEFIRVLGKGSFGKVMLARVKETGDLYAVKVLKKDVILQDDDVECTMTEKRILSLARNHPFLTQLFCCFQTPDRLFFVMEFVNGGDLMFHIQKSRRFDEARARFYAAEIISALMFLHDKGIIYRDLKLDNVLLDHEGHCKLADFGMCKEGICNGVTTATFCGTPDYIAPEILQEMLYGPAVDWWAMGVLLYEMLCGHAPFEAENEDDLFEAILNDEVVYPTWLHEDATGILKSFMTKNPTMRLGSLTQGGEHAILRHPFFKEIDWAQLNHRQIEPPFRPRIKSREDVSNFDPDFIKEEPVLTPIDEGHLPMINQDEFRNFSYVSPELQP

Row | SMILES | residual activity [1] [%] | residual activity [2] [%] | residual activity [3] [%] | residual activity [4] [%] | residual activity [5] [%] | residual activity [6] [%] | residual activity [7] [%] | residual activity [8] [%] | residual activity [9] [%] | residual activity [10] [%] | residual activity [11] [%] | residual activity [12] [%] | residual activity [13] [%] | residual activity [14] [%] | residual activity [15] [%] | residual activity [16] [%] | residual activity [17] [%] | residual activity [18] [%] | residual activity [19] [%] | residual activity [20] [%]
1 | Cn1cc(Cl)c2c(Oc3c(F)cc(Nc4cc(Cl)nc(N)n4)cc3F)ccnc21 [BAY-4900] | 89 | 95 | 100 | 100 | 100 | 100 | 79 | 100 | 95 | 94 | 92 | 85 | 84 | 89 | 98 | 83 | 100 | 100 | 85 | 100
2 | Cc1c[nH]c2nccc(Oc3c(F)cc(Nc4cc(Cl)nc(N)n4)cc3F)c12 [BAY-549] | 55 | 81 | 94 | 96 | 100 | 100 | 87 | 100 | 75 | 100 | 69 | 85 | 90 | 85 | 74 | 49 | 90 | 98 | 95 | 100
